For ten compounds, IC50 results are on record in patent US6936719B2, “Biaryl compounds as serine protease inhibitors” (BioCryst Pharmaceuticals, Inc., priority 2001, dated 2005).

Assay type in all cases: biochemical
The subject of one assay is human pancreatic trypsin. Description: In vitro enzymatic assay for human trypsin (L-BAPNA, OD405). The method, then: In Vitro Assay for Human Trypsin
This enzymatic assay was employed to evaluate the ability of the test compounds to inhibit human pancreatic trypsin. IC50 of the test compounds was determined by using KC4A data reduction software (Bio-Tek Instruments) to interpolate percent inhibition from observed Vmax values.
Trypsin assay reactions were performed in a 200 μL mixture containing human pancreatic trypsin at 1 μg/mL in an assay buffer containing 200 mM triethanolamine (TEA), 10 mM calcium chloride, 10% DMSO, pH 7.8. Test compounds dissolved in DMSO were added to trypsin enzyme reactions at varied concentrations, followed by the addition of substrate Nα-Benzoyl-L-Arginine p-Nitroanilide (L-BAPNA) at a final concentration of (0.25 mg/mL). Reactions were incubated for 5 minutes at room temperature prior to measuring the change in OD405 nm for 10 minutes at 21 second intervals with a Powerwave x (Bio-Tek Instruments) microplate reader.

The target in another assay is human thrombin (Homo sapiens, UniProt P00734). Description: In vitro colorimetric assay for human thrombin (Nα-Benzoyl-Phe-Val-Arg-p-Nitroanilide, OD405). The method, then:
In Vitro Assay for Human Thrombin
This colorimetric assay was used to assess the ability of the test compounds to inhibit the human thrombin enzyme. IC50 of the test compounds was determined by using KC4A data reduction software (Bio-Tek Instruments) to interpolate percent inhibition from observed Vmax values.
Thrombin assay reactions were performed in a 200 μL mixture containing human thrombin at (1 U/mL) in an assay buffer containing 100 mM HEPES, 10 mM calcium chloride, and 10% DMSO, pH 7.5. Test compounds dissolved in DMSO were added to thrombin enzyme reactions at varied concentrations, followed by the addition of substrate Nα-Benzoyl-Phe-Val-Arg-p-Nitroanilide at a final concentration of 1 mM. Reactions were incubated for 5 minutes at room temperature prior to measuring the change in OD405 nm for 10 minutes at 21 second intervals with a Powerwave x (Bio-Tek Instruments) microplate reader.

In a further assay the target is TF/FVIIa (Homo sapiens, UniProt P08709). Description: In vitro amidolytic assay for inhibition of TF/FVIIa (Spectrozyme-FVIIa, pNA absorbance at OD405). The method, then: In Vitro Assay for Inhibition of TF/FVIIa
Sequence of TF/FVIIa (P08709 213-466 limits assumed): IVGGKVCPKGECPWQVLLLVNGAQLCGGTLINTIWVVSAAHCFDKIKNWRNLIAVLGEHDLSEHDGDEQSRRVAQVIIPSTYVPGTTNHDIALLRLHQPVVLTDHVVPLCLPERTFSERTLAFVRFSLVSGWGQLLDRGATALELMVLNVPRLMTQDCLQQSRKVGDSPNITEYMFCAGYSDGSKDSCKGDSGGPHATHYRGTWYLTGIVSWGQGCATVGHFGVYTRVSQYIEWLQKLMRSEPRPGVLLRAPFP
Sequence of TF/FVIIa (P08709 61-212 limits assumed): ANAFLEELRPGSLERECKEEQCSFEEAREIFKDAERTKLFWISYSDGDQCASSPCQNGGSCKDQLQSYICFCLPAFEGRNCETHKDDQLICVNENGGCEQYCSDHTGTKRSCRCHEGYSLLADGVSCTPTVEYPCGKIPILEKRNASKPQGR
Sequence of TF/FVIIa (P13726 33-295 partner): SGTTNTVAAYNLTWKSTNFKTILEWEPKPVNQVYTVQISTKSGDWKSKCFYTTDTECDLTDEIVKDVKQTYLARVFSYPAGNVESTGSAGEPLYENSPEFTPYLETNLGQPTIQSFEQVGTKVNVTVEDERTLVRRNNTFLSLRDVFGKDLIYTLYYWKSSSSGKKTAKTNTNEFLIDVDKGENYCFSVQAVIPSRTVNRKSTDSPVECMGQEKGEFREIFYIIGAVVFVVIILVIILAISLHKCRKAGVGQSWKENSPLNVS
To assess the inhibition of the test compounds against the target enzyme, TF/FVIIa, an amidolytic assay based upon the absorbance of p-Nitroanalide (pNA) at OD405 was utilized. The IC50 of the test compounds was determined by using KC4A data reduction software (Bio-Tek Instruments) to interpolate percent inhibition from observed Vmax values.
TF/FVIIa assay reactions were performed in a 200 μL mixture containing 4 nM FVIIa, 10 nM lipidated tissue factor, in an assay buffer containing 100 mM Tris, pH 7.2, 150 mM NaCl, 5 mM calcium chloride, 0.1% bovine serum albumin (BSA), and 10% dimethyl sulfoxide (DMSO). TF and FVIIa were allowed to equilibrate at room temperature for 15 minutes. Test compounds dissolved in DMSO were incubated at varied concentrations with TF/FVIIa for 10 minutes, followed by addition of 500 µM substrate Spectrozyme-FVIIa. Reactions were incubated for 5 minutes at room temperature prior to measuring the change in OD405 run for 10 minutes at 21 second intervals with a Powerwave x (Bio-Tek Instruments) microplate reader.

A value given as a limit tells only on which side of the number the result lay.

Take `C=Cc1ccc(-c2ccc(C(=O)NCC(C)C)cc2C(=O)O)c(C(=O)Nc2ccc(C(=N)N)cc2)c1`: the values for the IC50 in the assay on human pancreatic trypsin, against human thrombin and against TF/FVIIa were 100 to 1000 nM, over 1000 nM and under 100 nM, respectively.
For `CC(C)CNC(=O)c1ccc(-c2ccc(-c3nccs3)cc2C(=O)Nc2ccc(C(=N)N)cc2)c(C(=O)O)c1`, in that order: over 1000 nM, over 1000 nM and over 100 nM.
For `N=C(N)c1ccc(NC(=O)c2cc(-c3ccco3)ccc2-c2ccc(C(=O)NCCCCCC(=O)O)cc2C(=O)O)cc1`, in that order: 100 to 1000 nM, over 1000 nM and under 100 nM.
For `CC(C)CNC(=O)c1ccc(-c2ccc(-c3ccc(CO)s3)cc2C(=O)Nc2ccc(C(=N)N)cc2)c(C(=O)O)c1`, in that order: over 1000 nM, over 1000 nM and over 100 nM.
`CC(C)CNC(=O)c1ccc(-c2cc(Oc3ccccc3)ccc2C(=O)Nc2ccc(C(=N)N)cc2)c(C(=O)O)c1`: the IC50 against TF/FVIIa was over 1000 nM.
Take `C#CCNC(=O)c1ccc(-c2ccc(-c3ccco3)cc2C(=O)Nc2ccc(C(=N)N)cc2)c(C(=O)O)c1`: the results for the IC50 with human pancreatic trypsin, against human thrombin and at TF/FVIIa were 100 to 1000 nM, over 1000 nM and under 100 nM, respectively.
As to `CC(C)CNC(=O)c1ccc(-c2ccc(C#CC(C)(C)O)cc2C(=O)Nc2ccc(C(=N)N)cc2)c(C(=O)O)c1`, the half-inhibitory concentration (IC50) at TF/FVIIa was over 100 nM.
On the same count and under the same terms, the result for `CC(C)CNC(=O)c1ccc(-c2cc(-c3cccs3)ccc2C(=O)Nc2ccc(C(=N)N)cc2)c(C(=O)O)c1` reads over 100 nM.
In the case of `CC(C)CNC(=O)c1ccc(-c2ccc(-c3ccncc3)cc2C(=O)Nc2ccc(C(=N)N)cc2)c(C(=O)O)c1`, the values for the IC50 in the assay on human pancreatic trypsin, on human thrombin and at TF/FVIIa were over 1000 nM, over 1000 nM and over 100 nM, respectively.
With `C=Cc1ccc(-c2ccc(C(=O)NC(CCC)CCC)cc2C(=O)O)c(C(=O)Nc2ccc(C(=N)N)cc2)c1`, the IC50 in the assay on human pancreatic trypsin is 100 to 1000 nM; on human thrombin, over 1000 nM; against TF/FVIIa, under 100 nM.
